Measurements: US7928057B2, “Peptide for inhibition of calcineurin, nucleic acid, antibody, and diagnostic and therapeutic methods of use” (Julius-Maximilians-Universitaet Wuerzburg, priority 2006, dated 2011)
Entries after “also recorded” stand apart in the source; their conditions may differ. Where no end group is shown, it is not given here.

What was measured:
[1] = test system: nuclear import of calcineurin (CnA) via importin β1; test: Peptide competition assay: nuclear import of calcineurin in cardiomyocytes; assay type: cell-based; settings: neonatal rat cardiomyocytes stimulated with Ang II; peptide added to the medium (1 μM)
Method: (§1) Neonatal rat cardiomyocytes were incubated with a peptide mimicking the NLS sequence of CnA (SEQ ID NO:2) and stimulated with Ang II ([…]). […] Nuclear import of CnA was therefore prevented. Control experiments were performed with a non-sense peptide SEQ ID NO: 3).
(§2) Neonatal rat cardiomyocytes of Wistar rats were isolated as described previously (Ritter et al., 2003). Cells were resuspended in minimum essential medium/1% FCS. After preplating, the cardiomyocyte containing supernatant was recovered, and cells were plated in minimum essential medium on 6-well plates at a density of 1×10^6 cells per well. The medium for cardiomyocytes contained 5-bromo-2′-deoxyuridine (0.1 mmol/L) to suppress fibroblast growth. Fibroblast contamination of cardiomyocyte cultures was between 4% and 7% as regularly determined by immunohistochemical staining for troponin T. HeLa cells were grown in DMEM/5% FCS (Sigma). 48 hours after preparation, cells were stimulated with 10 nmol/L angiotensin II (Ang II). Cells were harvested 24 hours after stimulation. Concentrations were as follows: Ang II: 10 μM, calpeptin: 10 μM, NLS peptide and control peptide: 1 μM, respectively.
(§3) The subcellular distribution of calcineurin was determined by immunofluorescence stainings. The primary antibodies used in fluorescence staining are described elsewhere (Burkhard et al., 2005). […]

[2] = test system: CnA/NF-ATc signalling pathway; test: NF-ATc luciferase reporter plasmid transcriptional activity; assay type: cell-based, rat
Method: as §2
NF-ATc reporter plasmid comprised the II-2 promoter followed by luciferase. Luciferase activity was determined according to the manufacturer's protocol (Promega). CnA phosphatase activity was determined using a commercial kit (CnA kit assay, Biomol) that measures effect on a specific CnA phosphosubstrate. Free PO4 was indicated by a malachite green dye. The use of this kit has been described previously (Ritter et al., 2002).
(§4) Phosphatase activity, transcriptional activity, protein synthesis, cell size and makers of myocardial hypertrophy in response to the peptide related inhibition of CnA nuclear import were examined. Phosphatase activity was assessed employing a specific substrate (RII) for can (Ritter et al., 2002). Cardiomyocytes were stimulated with Ang II (10 μM), and CnA phosphatase activity was measured in the presence of the NLS peptide or a non sense control peptide. […] Similarly, myocardial hypertrophy, as evidenced by protein synthesis (707±21% vs. 133±12%, n=8, p<0.05), cell size (1191±91 μm^2 vs. 728±65 μm^2, n=8, p<0.05) (FIG. 5B), and expression of brain natriuretic peptide (BNP) (163±11% vs. 88±8%, n=8, p<0.05) (FIG. 5C), were suppressed by the NLS peptide.

Ang II treated mice = test: Ang II (osmotic minipump) induced myocardial hypertrophy in mice; assay type: in vivo; settings: for development of myocardial hypertrophy in vivo (heart/body weight ratio, molecular markers, echocardiography): cyclic peptide 25 mg/kg body weight/day i.p.; for dilation of the left ventricle (left ventricular end diastolic diameter, LVEDD): mice with implanted mini-osmotic pumps with AngII, FIG. 8
Method: For in vivo use the blocking peptide, that mimics the calcineurin nuclear localization signal (NLS) received a peptide extension to increase membrane permeability and was synthesised as a cyclic peptide to withstand proteolysis of N- and C-terminal proteases. This peptide was administered twice daily at a concentration of 25 mg/kg body weight/day by i.p. injections into mice. The mice were treated with implanted osmotic minipumps to release either angiotensin II or saline as control.
The inventor now extended his experiments to in vivo data.

[3] = test system: neonatal rat cardiomyocytes; test: Markers of myocardial hypertrophy in Ang II stimulated cardiomyocytes (protein synthesis, cell size, BNP); assay type: cell-based; settings: cardiomyocytes stimulated with Ang II (10 μM); n=8, p<0.05
Method: as §1, §2, §4

NFAT Luciferase reporter = NFAT Luciferase reporter transgenic mice treated with angiotensin II; assay type: in vivo
calcineurin (CnA) = test: CnA phosphatase activity (specific phosphosubstrate RII, Biomol kit); assay type: biochemical, rat; settings: cardiomyocytes stimulated with Ang II (10 μM); n=8, p=not significant
Method: as §2, with “48 hours after preparation, cells were stimulated with 10 nmol/L angiotensin II (Ang II). Cells were harvested 24 hours after stimulation. Concentrations were as follows: Ang II: 10 μM, calpeptin: 10 μM, NLS peptide and control peptide: 1 μM, respectively.” left out
NF-ATc reporter plasmid comprised the II-2 promoter followed by luciferase. Luciferase activity was determined according to the manufacturer's protocol (Promega). CnA phosphatase activity was determined using a commercial kit (CnA kit assay, Biomol) that measures effect on a specific CnA phosphosubstrate. […]
Phosphatase activity, transcriptional activity, protein synthesis, cell size and makers of myocardial hypertrophy in response to the peptide related inhibition of CnA nuclear import were examined. Phosphatase activity was assessed employing a specific substrate (RII) for can (Ritter et al., 2002). Cardiomyocytes were stimulated with Ang II (10 μM), and CnA phosphatase activity was measured in the presence of the NLS peptide or a non sense control peptide. […]

[4] = target: T1, calcineurin (CnA)/importin β1 interaction (Homo sapiens, UniProt Q14974); test: Peptide competition / co-immunoprecipitation of calcineurin with importin β1; assay type: binding; settings: HeLa cells transfected with GFP-tagged CnA mutants (FIG. 3)
T1 construct: expressed in transfected cells; host or cells: HeLa cells (importin β1 endogenous, EGFP-CnAβ transfected)
Method: Immunoprecipitation of the CnA/importin complexes was performed with importin β1 antibodies, detection with a GFP antibody.
Epitope-tagged derivatives of calcineurin Aβ containing amino-terminal EGFP were generated using the mammalian expression vector pEGFP-C3 (BD Bioscience Clontech). For cloning of calcineurin mutants the mammalian expression vector pCMV-Sport6 containing the directionally cloned cDNA of human calcineurin Aβ was used (Invitrogen). The following mutants have been amplified by PCR, digested with XbaI and XhoI and cloned into the XbaI and XhoI sites of the described plasmid: CnAβ(full), CnAβ 1-415, CnAβ 1-425, CnAβ 1-445, CnAβ 1-465, CnAβ 1-485 and CnAβ 171-190. For these truncated mutants different reverse oligonucleotides were designed with subsequent N-terminal binding sites. The forward primer, binding at the N-terminus of calcineurin, was identical for each plasmid apart from the CnA(171-190) mutant. For this derivative primers are bound upstream of aa 171 and downstream of aa 190, respectively. Two internal mutants CnAβ(Δ420-434) and CnAβ(Δ420-445) were cloned into the XbaI and XhoI sites of pEGFP-C3 using a two step strategy. […]
as §3

CRM1 = target: T2, CRM1 (Rattus norvegicus, UniProt Q80U96); test: CRM1 mediated nuclear export of CnA in cardiomyocytes; assay type: cell-based; settings: full length CnA imported by Ang II stimulation, calpeptin added
T2 construct: endogenous in cells; host or cells: cardiomyocytes (neonatal rat)
Method: To address whether CnA nuclear export is mediated by CRM1, experiments using the CRM1 specific inhibitor, leptomycin B (LMB), were performed. Agonist-dependent nuclear import of full length CnA was achieved by Ang II stimulation. Calpeptin was added to prevent proteolysis of CnA.

T cells = T cells stimulated with spleen dendritic cells (H3-thymidin incorporation); assay type: cell-based; settings: T cells stimulated with spleen dendritic cells and simultaneously treated with peptide; FIG. 6
From the text: Bars indicate protein synthesis (H3-thymidin incorporation).
The inventor now extended the experiments to T-cells and to in vivo experiments in mice.

[5] = test system: cJUN, ERK 1/2, GATA4, NFAT2; test: Specificity: nuclear accumulation of other transcription factors in phenylephrin stimulated cardiomyocytes; assay type: cell-based; settings: cardiomyocytes stimulated with phenylephrin; FIG. 9
From the text: The inventor also analyzed the specificity with the peptide (AAVALLPAVLAALAA KQECKIKYSERV SEQ ID NO: 5). In theory this peptide that mimics the Calcineurin NLS saturates the binding site on importin and therefore might completely block importin function for other transcription factors as well.

T1 sequence (Q14974 whole entry): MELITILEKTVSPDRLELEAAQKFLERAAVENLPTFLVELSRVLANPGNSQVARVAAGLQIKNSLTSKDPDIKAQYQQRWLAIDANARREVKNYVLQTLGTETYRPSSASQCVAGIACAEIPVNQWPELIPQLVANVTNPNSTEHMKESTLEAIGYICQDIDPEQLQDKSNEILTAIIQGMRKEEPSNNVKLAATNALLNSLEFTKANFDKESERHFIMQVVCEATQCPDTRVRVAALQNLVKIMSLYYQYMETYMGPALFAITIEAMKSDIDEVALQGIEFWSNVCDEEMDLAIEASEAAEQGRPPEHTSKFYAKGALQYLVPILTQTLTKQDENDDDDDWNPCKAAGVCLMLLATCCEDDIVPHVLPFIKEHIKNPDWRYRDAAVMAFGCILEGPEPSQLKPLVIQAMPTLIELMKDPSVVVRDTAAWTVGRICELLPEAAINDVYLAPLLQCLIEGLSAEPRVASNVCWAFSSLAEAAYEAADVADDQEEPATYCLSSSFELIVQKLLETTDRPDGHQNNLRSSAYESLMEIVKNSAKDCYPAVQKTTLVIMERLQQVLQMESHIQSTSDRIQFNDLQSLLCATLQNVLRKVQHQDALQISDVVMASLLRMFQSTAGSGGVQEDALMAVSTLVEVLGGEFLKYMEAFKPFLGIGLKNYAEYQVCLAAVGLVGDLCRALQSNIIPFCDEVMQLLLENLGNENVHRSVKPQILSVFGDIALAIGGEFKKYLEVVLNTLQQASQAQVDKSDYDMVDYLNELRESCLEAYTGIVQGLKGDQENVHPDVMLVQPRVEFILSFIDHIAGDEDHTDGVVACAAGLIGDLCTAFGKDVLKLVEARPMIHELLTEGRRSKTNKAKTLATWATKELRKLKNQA
T2 sequence (Q80U96 whole entry): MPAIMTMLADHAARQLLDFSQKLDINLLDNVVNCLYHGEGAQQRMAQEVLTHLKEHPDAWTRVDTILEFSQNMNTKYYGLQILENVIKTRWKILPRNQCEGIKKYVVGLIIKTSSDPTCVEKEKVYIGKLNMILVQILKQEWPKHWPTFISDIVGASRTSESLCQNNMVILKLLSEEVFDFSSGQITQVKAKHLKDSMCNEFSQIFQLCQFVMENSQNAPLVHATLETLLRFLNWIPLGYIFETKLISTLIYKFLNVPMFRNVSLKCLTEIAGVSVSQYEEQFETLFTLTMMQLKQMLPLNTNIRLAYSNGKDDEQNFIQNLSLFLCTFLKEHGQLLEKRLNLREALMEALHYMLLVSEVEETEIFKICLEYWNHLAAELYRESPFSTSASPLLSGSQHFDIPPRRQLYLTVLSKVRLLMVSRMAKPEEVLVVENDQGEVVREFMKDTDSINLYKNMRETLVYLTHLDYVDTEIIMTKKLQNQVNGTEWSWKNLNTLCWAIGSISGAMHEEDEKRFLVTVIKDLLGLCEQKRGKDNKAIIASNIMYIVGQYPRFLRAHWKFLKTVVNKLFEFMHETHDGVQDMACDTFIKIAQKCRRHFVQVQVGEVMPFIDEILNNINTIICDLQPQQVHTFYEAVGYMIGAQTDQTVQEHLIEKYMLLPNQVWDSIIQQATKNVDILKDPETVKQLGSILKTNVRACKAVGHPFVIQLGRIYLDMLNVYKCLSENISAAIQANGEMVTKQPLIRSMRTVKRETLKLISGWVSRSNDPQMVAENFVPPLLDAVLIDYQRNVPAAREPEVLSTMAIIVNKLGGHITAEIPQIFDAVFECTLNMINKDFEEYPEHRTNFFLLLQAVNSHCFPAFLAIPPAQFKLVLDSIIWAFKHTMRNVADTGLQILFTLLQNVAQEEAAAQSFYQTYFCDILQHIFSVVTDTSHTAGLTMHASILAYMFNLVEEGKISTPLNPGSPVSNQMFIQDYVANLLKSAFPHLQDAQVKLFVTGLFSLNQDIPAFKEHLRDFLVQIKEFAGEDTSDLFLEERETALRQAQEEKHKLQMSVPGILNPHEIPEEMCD

Which results are given for “AAVALLPAVLLALLAKQECKIKYSERV (nuclear localisation signal and membrane anker) [NLS peptide]”?
nuclear import (translocation) of CnA [1]: suppressed calcineurin nuclear import; transcriptional activity of the CnA/NF-ATc signalling pathway ([2]; cardiomyocytes stimulated with Ang II (10 μM), n=8, p<0.05): 123±8%; transcriptional activity of calcineurin/NF-ATc (NF-ATc luciferase reporter plasmid), in words ([2]; neonatal rat cardiomyocytes, Ang II, FIG. 5A bottom, FIG. 5D): dose dependent manner; development of myocardial hypertrophy in vivo (heart/body weight ratio, molecular markers, echocardiography) (Ang II treated mice; Ang II minipump mice): able to suppress the development of myocardial hypertrophy in vivo; f-MHC expression as molecular marker of hypertrophy (Ang II treated mice; mice treated with angiotensin for 4 weeks, FIG. 7B): prevented expression of this marker; dilation of the left ventricle (left ventricular end diastolic diameter, LVEDD) (Ang II treated mice): dilation could prevented; cell size [3]: 728±65 μm^2; expression of brain natriuretic peptide (BNP) [3]: 88±8%; protein synthesis [3]: 133±12%; Luciferase activity (NFAT Luciferase reporter): suppressed Luciferase activity; total CnA phosphatase activity (calcineurin (CnA)): 273±11%; calcineurin interaction/binding with importin β1 [4]: prevented CnA binding to importin β1; also recorded: abrogated the interaction of calcineurin and importin β1

KQECKIKYSERV [SEQ ID NO: 2] was tested. Which toxic effect ([2]; higher concentrations (>1 μM), values below background levels of untreated cardiomyocytes, FIG. 5D) did it give?
The toxic effect was “toxic effect is possible”.

With CCC(=C/[C@H](C)C/C=C/C(C)=C/[C@@H](C)C(=O)[C@@H](C)[C@H](O)[C@@H](C)C/C(C)=C/C(=O)O)/C=C/[C@@H]1OC(=O)C=C[C@@H]1C [LMB, leptomycin B] as the molecule, how does the “nuclear export of CnA” value (CRM1) read?
The value was “suppressed nuclear export of CnA”.

Which results are given for “AAVALLPAVLLALLAAQECAIAYSEYV (control peptide and membrane anker) [non sense peptide used in control experiments, reference compound]”?
nuclear import (translocation) of CnA [1]: not inhibited; dilation of the left ventricle (left ventricular end diastolic diameter, LVEDD) (Ang II treated mice): did not prevent left ventricular dilation; total CnA phosphatase activity (calcineurin (CnA)): 289±17%; calcineurin interaction/binding with importin β1 [4]: did not interfere with the calcineurin/importin binding

With “blocking peptide: mimics the calcineurin NLS, with peptide extension to increase membrane permeability; synthesised as a cyclic peptide for in vivo use (AAVALLPAVLLALLAKQECKIKYSERV; also: synthesised as cyclic peptide, mode not given here)” as the molecule, how does the “T cell protein synthesis (H3-thymidin incorporation) / activation of lymphocytes” value (T cells) read?
Its value is “inhibited significantly; also recorded: significantly prevented activation of lymphocytes”.

And the “nuclear accumulation/import of selected transcription factors (cJUN, ERK 1/2, GATA4, NFAT2)” value [5]?
Its value is “did not prevent nuclear accumulation”.

What about the “calcineurin entry into the nucleus in vivo” value (Ang II treated mice; Ang II minipump mice, cellular level) of the same molecule?
The value was “suppressed calcineurin entry into the nucleus”.

What about the “development of myocardial hypertrophy in vivo (heart/body weight ratio, molecular markers, echocardiography)” value (Ang II treated mice; Ang II minipump mice) of the same molecule?
Its value is “able to prevent the development of myocardial hypertrophy; also recorded: prevents myocardial hypertrophy”.

What about the heart weight (Ang II treated mice; mice treated with Ang II for 4 weeks, cyclic peptide with membrane permeability extension, 25 mg/kg body weight/day i.p. twice daily, FIG. 7A) of the same molecule?
The heart weight was “prevented an increase in heart weight”.

For “AAVALLPAVLAALAA KQECKIKYSERV (AAVALLPAVLAALAAKQECKIKYSERV; alternative nucl loc signal plus membrane anker) [SEQ ID NO: 5]”, which “nuclear accumulation/import of selected transcription factors (cJUN, ERK 1/2, GATA4, NFAT2)” value [5] is on record?
Its value is “did not block import”.
